US20250084040A1, “SUBSTITUTED HETEROCYCLES AS c-MYC TARGETING AGENTS” (Northwestern University, priority 2018, published 2025)
Values belong to the compound of their own block, whether it stands above or below them.

Tests used:
MycCap cells = experiment: Cell viability of MycCap cells; format: cell-based
PC12 cells = experiment: Cell viability / proliferation of PC12 cells (Myc independent); format: cell-based
Experimental: (§1) Proliferation Assay (FIG. 11). PC3 prostate cancer cell line with high Myc level and PC12 pheochromocytoma tumor cell line with non functional Max protein, which is not dependent on Myc-Max complex, were phased from ATCC. Cells were plated in 96 well plate at 1000 cells per well, and Myc inhibitor 361 at various concentrations was added to the cells next day. After 3 days of treatment, fresh medium with 361 were added again, and cell viability was measured by MTS assay at day 5 after the treatment. (See FIG. 11).

[1] = In vitro metabolism, mouse S9 fraction; format: in vitro ADME
Experimental: (§2) In vitro metabolism of NUCC-176242 and NUCC-176248 were tested using mouse liver microsomes and a mouse S9 fraction. (See FIG. 9).

[2] = system: wild type and MYC knockout rat fibroblasts; experiment: Growth inhibition of MYC wild type versus MYC knockout rat fibroblasts; format: cell-based
Source text: We tested the top 13 active compounds in the first screen assay. […] More than half of the tested compounds show better growth inhibitory effect on MYC WT compared to MYC KO cells.

MV411 cells = experiment: AML xenograft model (MV411), combination with Ara-C; format: in vivo, mouse; conditions: AML mice xenograft model
Experimental: Myc inhibitor combination treatment with Ara-C in AML xenograft model (FIG. 17). CB17 SCID mice were inoculated with MV411 cells at the density of 5×10^6 suspended in PBS and matrigel (1:1). The mice were randomized based on tumor volume into 6 different groups after the tumor reached ˜200 to 500 mm^3. The mice were treated either with vehicle, NUO31, NU975 alone or in combination with cytarabine (Ara-C). […] (See FIG. 17).

[3] = In vitro metabolism, mouse liver microsomes; format: in vitro ADME; conditions: % remaining of compound after 60 min treatment with mouse liver microsomes
Experimental: as §2

DNA damage = experiment: rH2AX staining assay for DNA damage; format: cell-based
Experimental: Min9 (NUCC-0176234) was also tested for its ability to cause DNA damage in an rH2AX staining assay. We would not expect cMYC-targeting agents to produce significant DNA damage. Compounds that act directly against DNA such as doxorubicin do however. […] (See FIG. 6).

MYC/Max binding to DNA = MYC/Max binding to DNA (Homo sapiens, UniProt P01106); experiment: Electrophoretic mobility shift assay (EMSA), MYC/Max binding to DNA
Chain of MYC/Max binding to DNA (P01106 whole entry): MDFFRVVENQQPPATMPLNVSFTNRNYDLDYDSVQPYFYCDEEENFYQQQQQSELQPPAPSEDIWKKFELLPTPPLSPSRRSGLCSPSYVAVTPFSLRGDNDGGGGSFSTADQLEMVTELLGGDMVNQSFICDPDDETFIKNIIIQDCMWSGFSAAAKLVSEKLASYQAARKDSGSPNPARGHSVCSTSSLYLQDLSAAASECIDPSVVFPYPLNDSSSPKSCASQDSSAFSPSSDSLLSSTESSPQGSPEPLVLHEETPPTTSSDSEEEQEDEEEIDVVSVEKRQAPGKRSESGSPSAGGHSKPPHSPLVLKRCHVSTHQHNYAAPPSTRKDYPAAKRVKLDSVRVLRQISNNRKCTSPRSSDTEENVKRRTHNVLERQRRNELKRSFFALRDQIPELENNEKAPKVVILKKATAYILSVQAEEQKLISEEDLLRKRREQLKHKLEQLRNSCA
Experimental: We also tested our best hit compound Min9 (NUCC-0176234) and newly synthesized analogs for effects of these compounds on MYC/Max binding to DNA in electrophoretic mobility shift assays (EMSAs). (See FIG. 5a and FIG. 5b). We expected the active compounds to impair MYC/Max binding to DNA. Several strucutural analogs of Min9 were tested over multiple doses for inhibiting MYC-DNA binding and we observed a dose-dependent inhibition. (See FIG. 5c).

[4] = system: cMYC wild-type (WT) and cMYC KO line; experiment: Cell viability, cMYC wild-type (WT) versus cMYC KO line; format: cell-based; conditions: cMYC WT vs cMYC KO line
Experimental: Min9 (NUCC-0176234) was also tested in a cell viability assay against a cMYC wild-type (WT) and a cMYC KO line.

[5] = system: MYC transcriptional activity; experiment: MYC E-Box luciferase reporter assay; format: cell-based; conditions: MycCap Ebox-luc, 4 hours of treatment
Experimental: To test the compounds, we evaluated the in silico hits in a MYC E-Box luciferase reporter assay to measure the effects of these compounds (referred to as Min-1 to Min-32) on MYC transcriptional activity. […] (See FIG. 2).
Myc Ebox luciferase reporter assay (FIG. 12). MycCap cells stably expressing luciferase with CMV promoter (MycCap-luc) or c-Myc E-box-luciferase reporter (MycCap Ebox-luc) were plated at 10000 cells per well in 96 well white-wall plate. Serial dilutions of 361 were treated next day. At 4 hours of treatment, luminescence signal was determined immediately after adding 150 μg/ml of Luciferin to the well. (See FIG. 12).

MycCap tumor [6] = experiment: MycCap FVB allograft model, combination with anti-PD-1 immunotherapy; format: in vivo, mouse; conditions: combination with Immunotherapy (anti-PD-1 antibody)
Experimental: Myc inhibitor 361 combination with Immunotherapy (FIG. 16). MycCap FVB allograft model was treated with 361 (50 mg/kg) for two days, following by two days of anti-PD-1 antibody (100 ug/day), and kept this 4-day treatment cycle for 4 cycles. (See FIG. 16).

[7] = system: PC3 prostate cancer cell line; experiment: Proliferation assay (MTS), PC3 prostate cancer cell line; format: cell-based; conditions: day 5
Experimental: as §1

MycCap tumor [8] = experiment: MycCap FVB allograft model; format: in vivo; conditions: mouse prostate cancer allograft model, intra-peritoneally
Experimental: MycCap FVB allograft model (FIG. 15). FVB mice were inoculated with 1×10^6 of MycCap cells in 100 ul of matrigel subcutaneously on both flanks of the mice. When tumor size reached average size of 150 mm^3, mice were randomized based on tumor volume to 2 groups. Mice were administered with 50 mg/kg of 361 or vehicle (Veh) twice daily intra-peritoneally for two days. The treatment was suspended for 10 day, and initiated the treatment with a lower dose […] daily for another 9 days. Tumor size was measured twice a week during the experiment. (See FIG. 15).

SMILES: CNC(=O)c1cc(-c2ccc(OCc3ccc(Cl)cc3)c(-c3cc(C(F)(F)F)cc(C(F)(F)F)c3)c2O)nn1C [NUCC-0201224]
IC50 (MycCap cells): 1.1 µM | IC50 (PC12 cells): 11.6 µM

SMILES: CCc1ccc(Oc2c(-c3ccc(OCc4ccc(Cl)cc4)cc3O)n[nH]c2C(F)(F)F)cc1 [NUCC-0176242]
metabolism by mouse S9 fraction [1]: significantly metabolism by the mouse S9 fraction versus NUCC-176248

SMILES: CCc1ccc(Oc2c(-c3ccc(OCc4ccc(Cl)cc4)cc3O)nn(C)c2C(F)(F)F)cc1 [NUCC-0176248]
selectivity of growth inhibition, MYC WT compared to MYC KO cells [2]: high specificity

SMILES: Cn1nc(C(F)(F)F)cc1-c1ccc(OCc2ccc(Cl)cc2)c(-c2ccc(Cl)c(C(F)(F)F)c2)c1O [compound 975]
anti-tumor effect with Ara-C (MV411 cells): significant synergic anti-tumor effect

MLM % at 60 min [3]: 88.6%
SMILES: Oc1c(-c2cc(C(F)(F)F)[nH]n2)ccc(OCc2ccc(Cl)cc2)c1-c1ccccc1Cl [NUCC-0196363]

MLM % at 60 min [3]: 10.3%
SMILES: CCCCOc1ccc(-c2cc(C(F)(F)F)n(C)n2)c(O)c1-c1cncc(C(F)(F)F)c1 [NUCC-0201209]

SMILES: Cn1nc(C(F)(F)F)cc1-c1ccc(OCc2ccc(Cl)cc2)c(-c2cc(C(F)(F)F)cc(C(F)(F)F)c2)c1O [NUCC-0196361]
MLM % at 60 min [3]: 72.9%

inhibition of MYC/Max binding to DNA (in words) (MYC/Max binding to DNA): prevent c-MYC/DNA binding
SMILES: CCc1ccc(Oc2c[nH]nc2-c2ccc(OCc3cnn(-c4ccccc4)c3)cc2O)cc1 [NUCC-0176234]
DNA damage (DNA damage): essentially no DNA damage | cell viability, WT line versus KO cells [4]: reduces cell viability much more in the WT line than the KO cells

MLM % at 60 min [3]: 60.3%
SMILES: CCOC(=O)c1cc(-c2ccc(OCc3ccc(Cl)cc3)c(-c3cc(C(F)(F)F)cc(C(F)(F)F)c3)c2O)n[nH]1 [NUCC-0200972]

SMILES: CCc1ccc(Oc2c(-c3ccc(OCc4ccncc4)cc3O)n[nH]c2C(F)(F)F)cc1 [NUCC-0176250]
selectivity of growth inhibition, MYC WT compared to MYC KO cells [2]: great selectivity

SMILES: CCCCOc1ccc(-c2cc(C(F)(F)F)n[nH]2)c(O)c1-c1cc(C(F)(F)F)cc(C(F)(F)F)c1 [compound 031]
anti-tumor effect with Ara-C (MV411 cells): significant synergic anti-tumor effect

MLM % at 60 min [3]: 46.4%
SMILES: CCc1c(OCc2ccc(Cl)cc2)ccc(-c2cc(C(F)(F)F)n[nH]2)c1O [NUCC-0200739]

SMILES: Cn1nc(C(F)(F)F)cc1-c1ccc(OCc2ccc(Cl)cc2)c(-c2cc(C(F)(F)F)cc(C(F)(F)F)c2)c1O [compound 361]
c-Myc transcription activity [5]: inhibits c-Myc transcription activity as an early event before affecting cell viability | tumor progression (MycCap tumor [6]): significantly blocks tumor progression | proliferation of Myc dependent cell line PC3 [7]: specifically inhibits proliferation | tumor volume (MycCap tumor [8]): reduces tumor volume

MLM % at 60 min [3]: 80.3%
SMILES: Cn1nc(C(F)(F)F)cc1-c1ccc(OCc2ccc(Cl)cc2)c(-c2cccc(C#N)c2)c1O [NUCC-0198399]
